Reference: patent US4483989A, “Synthesis of pyrido[4,3-b]carbazole derivatives” (priority 1973, dated 1984)
“Also recorded” adds a separate entry of the source. Read-outs that look alike come from different tables or passages of the source.

Legend:
[1] = test system: mouse L 1210 leukemia; conditions: in vivo; cited from earlier work
[2] = test system: BP 8 tumors; conditions: mouse, in vivo; cited from earlier work
[3] = test system: acute myeloblastic leukemia; conditions: in vivo; cited from earlier work
[4] = test system: acute lymphoblastic leukemia; conditions: in vivo; cited from earlier work
[5] = test system: Hodgkin's disease; conditions: in vivo; cited from earlier work
[6] = cited from earlier work
[7] = test system: mouse L 1210 leukemia; assay: L1210 leukemia in mice: inoculum of 10^5 cells, single dose of compound 24 hours later; type: in vivo
Text: The experimental tumor mouse L 1210 leukemia is commonly used to evaluate the effects of all the antitumor compounds now used in human therapeutics,as was described, for example, by C. C. ZUBROD in Proc. Nat. Acad. Sci. USA 69, 1972, pp. 1042-1047. This experimentally formed tumoral system permits very accurate quantitative evaluation of the activity of the compound tested and also, consequently, an objective comparison of the respective activities of various compounds, for example, according to the methods described by H. E. SKIPPER, F. M. SCHABEL Jr. and W. S. WILCOX in Cancer Chemiother. Rep. 1964, pp. 1-111 and 45, 1965, pp. 5-28.
(§1) The mice were randomized in each experimental series. A first routine experiment enable the death rate by toxicity to be determined and thus established the sublethal doses.
According to the convention in force in this field, the animals which survived longer than 45 days after inoculation of tumoral cells were considered to be cured.
(§2) To evaluate the therapeutic activity of the compounds of the invention, doses of said compound were expressed basing them on the 30 days sublethal dose which was fixed at 1.
A--A tumoral inoculum of 10^5 L1210 leukemia cells was administered by the intraperitoneal way to twenty 2 to 3 months old DBA/2 strain female mice. 24 hours later, half of said mice received a single intraperitoneal injection of a variable dose of the compound to be tested and the same volume of solvent was administered to the other half of the mice by the same way; this latter half of the group of mice was therefore used as the control series. The mice were randomized in each experimental series.
Animals surviving for longer than 45 days were considered to be cured.

[8] = test system: mouse P 388 leukemia; assay: P 388 leukemia in mice, same procedure, inoculum of 10^5 cells; type: in vivo; conditions: same doses, compared with L1210 leukemia
Text: The effect the compounds of the invention have on mouse L 1210 or P 388 leukemias was used to test the antitumor activity of said compounds.
B-The same procedure was used as in A, but after a tumoral inoculum of 10^5 P 388 leukemia cells had been injected to the mice. The therapeutic activity of the 9-hydroxy 2-methyl-ellipticinium was similar on this mouse P 388 leukemia to that obtained on mouse L1210 leukemia, using the same doses.

[9] = Text: as §1, §2
[10] = biological target: DNA; assay: DNA affinity; type: binding
[11] = test system: L1210 cells; assay: Rate of L1210 cells multiplication in vitro; type: cell-based, mouse
[12] = Autoradiography with 14C-labeled molecules (biodisponibility); type: in vivo
Text: To understand the increase of the antitumor efficiency of the quaternarized compounds, several parameters of action of 9--OH--E and its methyl derivative have been comparatively established (see table III). Both compounds have about the same affinity for DNA. On a weight basis, the methyl compound is about 10 times more toxic in mice but also 10 times more efficient on leukemic mice (ILS). […] Therefore, there is no quantitative parallel between the in vivo and in vitro action of these drugs. The N-quaternization markedly changes the biodisponibility of the drugs as shown by autoradiography with ^14 C-labeled molecules. […] Several ellipticine derivatives are mutagenic on Ames Salmonella test; however, the quaternized derivatives lose this property. The microsomes, which are able to metabolize some ellipticines, increase the mutagenic ability of these drugs in vitro. […] Due to the curved shape of their molecules, their relative hydrophobicity, and the presence of a heterocyclic nitrogen, the ellipticines are good substrates for the cytochrome P450 system, provided that the 2-N remains uncharged.

[13] = test system: advanced breast, thyroid, or colon cancers; assay: Phase I trial, weekly intravenous dose, refractory patients; type: in vivo, human
Procedure: A phase I trial was done at the Cancer Institute of 14-Caen, France. A weekly dose in the range of 50 to 100 mg per m2 was given intravenously over a 30 minutes period to patients refractory to usual chemotherapeutic or radiotherapeutic treatments (3). […] They were suffering from advanced breast, thyroid, or colon cancers, with bone or lung metastasis in mostcases.

[14] = mouse, in vivo

COc1ccc2[nH]c3c(C)c4ccncc4c(C)c3c2c1 [9-methoxy-ellipticine lactate]
Oncostatic action in mouse L 1210 leukemia [1]: oncostatic action
Oncostatic action in BP 8 tumors [2]: oncostatic action
Effectiveness in acute myeloblastic leukemia [3]: effective
Effectiveness in acute lymphoblastic leukemia [4]: ineffective
Effectiveness in Hodgkin's disease [5]: ineffective
Immunosuppressive action ([6]; administered after the antigen): has an immunosuppressive action
Immunosuppressive action ([6]; administered to humans): does not reveal such an activity

Cc1c2cc[n+](C)cc2c(C)c2c1[nH]c1ccc(O)cc12 [9-hydroxy 2-methyl ellipticinium acetate, 9-hydroxy-2-methyl-ellipticinium acetate]
Doses smaller than the doses of 9-hydroxy-ellipticine necessary to obtain a comparable result ([7]; L1210 leukemia): about 10 times
ED (ILS 25%) ([7]; Mus musculus, L1210, ip, mice, read-out: L 1210 cells: in vivo dose to reach ILS 25%): 1 mg/kg
Cured mouse surviving more than 45 days ([7]; footnote of table IV, I.P., 10^5 L1210 cells): 1 out of 20 mice
Efficiency on leukemic mice (ILS) relative to 9--OH--E, on a weight basis ([7]; mouse, in vivo): about 10 times
Therapeutic activity on mouse P 388 leukemia [8]: similar
Toxicity in mice relative to 9--OH--E, on a weight basis [9]: about 10 times
LDo (highest non lethal dose / sublethal dose) for mice ([9]; route not given): 5 mg/kg
Kd [10]: 769 nM
Activity on the rate of growth of L1210 cells in vitro relative to 9--OH--E [11]: four times less active
Elimination [12]: elimination through feces is reduced
Organ distribution (autoradiography) ([12]; listed as methyl derivative): devoid of any ability to concentrate in lungs and pancreas; also recorded: capacity to concentrate in the intestinal walls and in the thyroid
Activity on human tumors ([13]; human, in vivo): active on some human tumors
Toxic side effects ([13]; phase I trial): No major toxic side effects
Patients with subjective or objective improvements ([13]; weekly 50 to 100 mg per m2 intravenously over 30 minutes): Eight of the first 18 patients
Metabolism [14]: excreted with no major modification
